Measured values published in US20100167397A1, “ENDOCRINE CELL LINES AND METHOD OF USING THE SAME” (KYOWA HAKKO KOGYO CO., LTD., priority 2002, published 2010).

B1: G2A (protein, UniProt Q9UNW8 1-380, looked up)
Probable G-protein coupled …: MCPMLLKNGYNGNATPVTTTAPWASLGLSAKTCNNVSFEESRIVLVVVYSAVCTLGVPANCLTAWLALLQVLQGNVLAVYLLCLALCELLYTGTLPLWVIYIRNQHRWTLGLLACKVTAYIFFCNIYVSILFLCCISCDRFVAVVYALESRGRRRRRTAILISACIFILVGIVHYPVFQTEDKETCFDMLQMDSRIAGYYYARFTVGFAIPLSIIAFTNHRIFRSIKQSMGLSAAQKAKVKHSAIAVVVIFLVCFAPYHLVLLVKAAAFSYYRGDRNAMCGLEERLYTASVVFLCLSTVNGVADPIIYVLATDHSRQEVSRIHKGWKEWSMKTDVTRLTHSRDTEELQSPVALADHYTFSRPVHPPGSPCPAKRLIEESC
B2: GPR35D113A: GPR35 mutant GPCR, 113th aspartic acid substituted with alanine; SEQ ID NO: 191 (protein)
chain: MNGTYNTCGSSDLTWPPAIKLGFYAYLGVLLVLGLLLNSLALWVFCCRMQQWTETRIYMTNLAVADLCLLCTLPFVLHSLRDTSDTPLCQLSQGIYLTNRYMSISLVTAIAVARYVAVRHPLRARGLRSPRQAAAVCAVLWVLVIGSLVARWLLGIQEGGFCFRSTRHNFNSMRFPLLGFYLPLAVVVFCSLKVVTALAQRPPTDVGQAEATRKAARMVWANLLVFVVCFLPLHVGLTVRLAVGWNACALLETIRRALYITSKLSDANCCLDAICYYYMAKEFQEASALAVAPRAKAHKSQDSLCVTLA
modifications: GPR35D113A
B3: GPCR25D111A: GPCR25 mutant GPCR, 111th aspartic acid substituted with alanine; SEQ ID NO: 192 (protein)
chain: MNSTCIEEQHDLDHYLFPIVYIFVIIVSIPANIGSLCVSFLQPKKESELGIYLFSLSLSDLLYALTLPLWIDYTWNKDNWTFSPALCKGSAFLMYMKFYSSTAFLTCIAVARYLAVVYPLKFFFLRTRRIALMVSLSIWILETIFNAVMLWEDETVVEYCDAEKSNFTLCYDKYPLEKWQINLNLFRTCTGYAIPLVTILICNRKVYQAVRHNKATENKEKKRIIKLLVSITVTFVLCFTPFHVMLLIRCILEHAVNFEDHSNSGKRTYTMYRITVALTSLNCVADPILYCFVTETGRYDMWNILKFCTGRCNTSQRQRKRILSVSTKDTMELEVLE
modifications: GPCR25D111A
B4: RE2D124A: RE2 mutant GPCR, 124th aspartic acid substituted with alanine; SEQ ID NO: 190 (protein)
chain: MSLNSSLSCRKELSNLTEEEGGEGGVIITQFIAIIVITIFVCLGNLVIVVTLYKKSYLLTLSNKFVFSLTLSNFLLSVLVLPFVVTSSIRREWIFGVVWCNFSALLYLLISSASMLTLGVIAIARYYAVLYPMVYPMKITGNRAVMALVYIWLHSLIGCLPPLFGWSSVEFDEFKWMCVAAWHREPGYTAFWQIWCALFPFLVMLVCYGFIFRVARVKARKVHCGTVVIVEEDAQRTGRKNSSTSTSSSGSRRNAFQGVVYSANQCKALITILVVLGAFMVTWGPYMVVIASEALWGKSSVSPSLETWATWLSFASAVCHPLIYGLWNKTVRKELLGMCFGDRYYREPFVQRQRTSRLFSISNRITDLGLSPHLTALMAGGQPLGHSSSTGDTGFSCSQDSGNLRAL
modifications: RE2D124A
B5: GPR43R217P: mutant where the 217th arginine of GPR43 polypeptide was substituted with proline; SEQ ID NO: 197 (protein)
chain: MLPDWKSSLILMAYIIIFLTGLPANLLALRAFVGRIRQPQPAPVHILLLSLTLADLLLLLLLPFKIIEAASNFRWYLPKVVCALTSFGFYSSIYCSTWLLAGISIERYLGVAFPVQYKLSRRPLYGVIAALVAWVMSFGHCTIVIIVQYLNTTEQVRSGNEITCYENFTDNQLDVVLPVRLELCLVLFFIPMAVTIFCYWRFVWIMLSQPLVGAQRPRRAVGLAVVTLLNFLVCFGPYNVSHLVGYHQRKSPWWRSIAVVFSSLNASLDPLLFYFSSSVVRRAFGRGLQVLRNQGSSLLGRRGKDTAEGTNEDRGVGQGEGMPSSDFTTE
modifications: GPR43R217P
B6: GPR43R217PE106D: GPR43R217P mutant where the 106th glutamic acid was substituted with aspartic acid; SEQ ID NO: 198 (protein)
chain: MLPDWKSSLILMAYIIIFLTGLPANLLALRAFVGRIRQPQPAPVHILLLSLTLADLLLLLLLPFKIIEAASNFRWYLPKVVCALTSFGFYSSIYCSTWLLAGISIDRYLGVAFPVQYKLSRRPLYGVIAALVAWVMSFGHCTIVIIVQYLNTTEQVRSGNEITCYENFTDNQLDVVLPVRLELCLVLFFIPMAVTIFCYWRFVWIMLSQPLVGAQRPRRAVGLAVVTLLNFLVCFGPYNVSHLVGYHQRKSPWWRSIAVVFSSLNASLDPLLFYFSSSVVRRAFGRGLQVLRNQGSSLLGRRGKDTAEGTNEDRGVGQGEGMPSSDFTTE
modifications: GPR43R217P/E106D
B7: PGMO334E135F: mutant where the 135th glutamic acid of the PGMO334 polypeptide was substituted with phenylalanine; SEQ ID NO: 193 (protein)
chain: MSPECARAAGDAPLRSLEQANRTRFPFFSDVKGDHRLVLAAVETTVLVLIFAVSLLGNVCALVLVARRRRRGATACLVLNLFCADLLFISAIPLVLAVRWTEAWLLGPVACHLLFYVMTLSGSVTILTLAAVSLFRMVCIVHLQRGVRGPGRRARAVLLALIWGYSAVAALPLCVFFRVVPQRLPGADQEISICTLIWPTIPGEISWDVSFVTLNFLVPGLVIVISYSKILQITKASRKRLTVSLAYSESHQIRVSQQDFRLFRTLFLLMVSFFIMWSPIIITILLILIQNFKQDLVIWPSLFFWVVAFTFANSALNPILYNMTLCRNEWKKIFCCFWFPEKGAILTDTSVKRNDLSIISG
modifications: PGMO334E135F
B8: PGMO334D259S: mutant where the 259th aspartic acid of PGMO334 polypeptide was substituted with serine; SEQ ID NO: 196 (protein)
chain: MSPECARAAGDAPLRSLEQANRTRFPFFSDVKGDHRLVLAAVETTVLVLIFAVSLLGNVCALVLVARRRRRGATACLVLNLFCADLLFISAIPLVLAVRWTEAWLLGPVACHLLFYVMTLSGSVTILTLAAVSLERMVCIVHLQRGVRGPGRRARAVLLALIWGYSAVAALPLCVFFRVVPQRLPGADQEISICTLIWPTIPGEISWDVSFVTLNFLVPGLVIVISYSKILQITKASRKRLTVSLAYSESHQIRVSQQSFRLFRTLFLLMVSFFIMWSPIIITILLILIQNFKQDLVIWPSLFFWVVAFTFANSALNPILYNMTLCRNEWKKIFCCFWFPEKGAILTDTSVKRNDLSIISG
modifications: PGMO334D259S
B9: PGMO334E135A: mutant where the 135th glutamic acid of PGMO334 polypeptide was substituted with alanine; SEQ ID NO: 195 (protein)
chain: MSPECARAAGDAPLRSLEQANRTRFPFFSDVKGDHRLVLAAVETTVLVLIFAVSLLGNVCALVLVARRRRRGATACLVLNLFCADLLFISAIPLVLAVRWTEAWLLGPVACHLLFYVMTLSGSVTILTLAAVSLARMVCIVHLQRGVRGPGRRARAVLLALIWGYSAVAALPLCVFFRVVPQRLPGADQEISICTLIWPTIPGEISWDVSFVTLNFLVPGLVIVISYSKILQITKASRKRLTVSLAYSESHQIRVSQQDFRLFRTLFLLMVSFFIMWSPIIITILLILIQNFKQDLVIWPSLFFWVVAFTFANSALNPILYNMTLCRNEWKKIFCCFWFPEKGAILTDTSVKRNDLSIISG
modifications: PGMO334E135A
B10: PGMO334E135Q: mutant where the 135th glutamic acid of PGMO334 polypeptide was substituted with glutamine; SEQ ID NO: 194 (protein)
chain: MSPECARAAGDAPLRSLEQANRTRFPFFSDVKGDHRLVLAAVETTVLVLIFAVSLLGNVCALVLVARRRRRGATACLVLNLFCADLLFISAIPLVLAVRWTEAWLLGPVACHLLFYVMTLSGSVTILTLAAVSLQRMVCIVHLQRGVRGPGRRARAVLLALIWGYSAVAALPLCVFFRVVPQRLPGADQEISICTLIWPTIPGEISWDVSFVTLNFLVPGLVIVISYSKILQITKASRKRLTVSLAYSESHQIRVSQQDFRLFRTLFLLMVSFFIMWSPIIITILLILIQNFKQDLVIWPSLFFWVVAFTFANSALNPILYNMTLCRNEWKKIFCCFWFPEKGAILTDTSVKRNDLSIISG
modifications: PGMO334E135Q

These molecules were tested on CRE reporter in GBCRC6 (assay: Constitutive activity of GPCR, Method 1 (GBCRC6 host, Renilla reniformis luciferase, induction ratio with 17β-estradiol)). Conditions: Method 1; GBCRC6 host; activity with 17β-estradiol divided by activity without; control plasmid about 1.
Format: cell-based, human
Experimental: After the incubation, coelenterazine h (Molecular Proves) (final concentration 250 nmol/L) was added to measure the activity of Renilla reniformis luciferase. For the activity measurement, a Wallac 1420 ARVOsx Multilabel Counter (manufactured by Wallac Berthold Japan) or a VIM camera (Argus-50/2D Luminometer/MP; manufactured by Hamamatsu Photonics) was used.
In each method, the induction ratio of the cells transfected with the control plasmid was about 1. It is judged that the higher the induction ratio of the cells to which a GPCR expression plasmid was transfected, the stronger the constitutive activity of the GPCR.
OGR1S221N was tested, and the “Constitutive Activity (induction ratio)” value was 12.7-fold. In the case of GPR 6, the “Constitutive Activity (induction ratio)” value is reported as 63-fold. In the case of GPR 35, the “Constitutive Activity (induction ratio)” value is reported as 25-fold. For GPR 92, the “Constitutive Activity (induction ratio)” value was 11-fold. With GPR 88 the “Constitutive Activity (induction ratio)” value was 15-fold. OGR1 was tested, and the “Constitutive Activity (induction ratio)” value was 3.6-fold. In the case of GPCR 25, the “Constitutive Activity (induction ratio)” value is reported as 20-fold. With GPR 62 the “Constitutive Activity (induction ratio)” value was 12-fold. GPR 4 was tested, and the “Constitutive Activity (induction ratio)” value was 40-fold. For GPR 30, the “Constitutive Activity (induction ratio)” value was 27-fold. In the case of GPR 61, the “Constitutive Activity (induction ratio)” value is reported as 12-fold. With B1 the “Constitutive Activity (induction ratio)” value was 20-fold.

Same assay, conditions: method 1 of (2) of Example 22; induction ratio of reporter activity with 17β-estradiol
“OGR1S221N/D118A: OGR1S221N mutant GPCR with 118th aspartic acid substituted with alanine; SEQ ID NO: 189” was tested, and the “Constitutive Activity” value was 56-fold. For B2, the “Constitutive Activity” value was 97-fold. For B3, the “Constitutive Activity” value was 35-fold. In the case of B4, the “Constitutive Activity” value is reported as 32-fold.

Same assay, conditions: method of (2) of Example 22 utilizing GBCRC6 as a host
For B5, the “induction ratio (constitutive activity)” value was “about 2 fold”. In the case of B6, the “induction ratio (constitutive activity)” value is reported as “about 17 fold”. B7 was tested, and the “induction ratio (constitutive activity)” value was “about 3 fold”. With B8 the “induction ratio (constitutive activity)” value was “about 5 fold”. B9 was tested, and the “induction ratio (constitutive activity)” value was “about 14 fold”. For B10, the “induction ratio (constitutive activity)” value was “about 3 fold”.
